In patent US7371755B1 (Biota Scientific Management Pty Ltd., priority 1999, dated 2008):
Values after ≈ are worked out from the molar mass of the structure shown. Where two headings read alike, the source gives them in different places.

How the values were obtained:
HRV type 1A = test: Inhibition of viral cytopathic effect (CPE), HRV type 1A in MRC-5 cells; format: cell-based, human rhinovirus; conditions: for EC50: Enterovirus
Procedure: (§5) The ability of compounds to suppress virus replication and thereby protect cells from HRV-induced CPE was measured using human embryo lung (MRC-5) and human epidermoid carcinoma of the mouth (KB) cells infected with HRV type 1A and HRV type 2, respectively. […] Test compounds were dissolved in 100% anhydrous dimethyl sulfoxide and serially diluted in tissue culture medium. The antiviral potency of the test compounds was assessed by exposing replicate tissue culture wells to a selected dilution series of between 6 and 7 compound concentrations in the presence of sufficient test virus to invoke significant CPE over the course of the assay. Control cells were also exposed to identical concentrations of compounds in the absence of virus or were infected with virus under the same conditions but in the absence of compounds. Compounds of established anti-HRV efficacy (enviroxime, ribavirin and pirodavir) were assayed by identical procedures in parallel to the test compounds. Tissue culture media were identically supplemented to maintain cell viability and support viral growth while suppressing bacterial growth over the period of the assay (supplements: 2% fetal calf serum, 0.01% sodium bicarbonate, 50 g/ml gentamicin, 5 M magnesium chloride, 10 mM of zinc chloride). […] At this time all infected cultures were examined by eye using a light microscope and CPE scored on a scale of 0 (no CPE) to 4 (maximum CPE). Uninfected treated cultures were similarly scored for cytotoxic effects (eg. cell enlargement, granularity, rounding, detachment). […] As an alternative to a CC50 value, cytoxicity in some cases was expressed as the Minimum Toxic Concentration (MTC).
(§6) Vital dye staining to measure cell viability was also used to quantify CPE and cytotoxic effects. […] After the assay had been scored by eye with the aid of a microscope, 100 1 of neutral red (NR) solution (0.34% NR in phosphate buffered saline (PBS)) was added to each well and mixed gently. The assays were returned to the 37° C. incubator for 2 hours to facilitate uptake of the NR by viable cells. The medium/NR mixture was then aspirated from the surface of the cells, which were washed twice with PBS. 0.25 ml of absolute ethanol containing Sorensen's citrate buffer I, was added with gentle mixing and the assays incubated at room temperature in the dark for 30 minutes to dissolve the NR. NR staining of viable cells was then quantified spectrophotometrically by measuring the colour density of the NR solution using a BioTek EL-309 microplate reader at dual wavelengths of 540 and 405 nm. The differences in the two readings were automatically determined to eliminate background errors. EC50 and CC50 values were determined by regression analysis matching compound concentration to NR staining. The XTT method involved use of a solution of XTT (1 mg/ml in culture media) which was added to each well and the plates incubated at 37° C. for 4 hours. XTT metabolism was measured spectrophotometrically using a similar method to that described above except that the dual wavelengths were 450 nm and 650 nm. EC50 and CC50 values were determined by regression analysis using a similar method to that described above.

[1] = Cytotoxicity in uninfected treated cultures (HRV type 1A assay); format: cell-based, human; conditions: human
Procedure: as §5, §6

HRV type 2 = test: Inhibition of viral cytopathic effect (CPE), HRV type 2 in KB cells; format: cell-based, human rhinovirus; conditions: for EC50: Enterovirus, read-out: Activity on Rhinovirus Type 2 EC50
Procedure: as §5, §6

[2] = Cytotoxicity in uninfected treated cultures (HRV type 2 assay); conditions: human
Procedure: (§1) The ability of compounds to suppress virus replication and thereby protect cells from HRV-induced CPE was measured using human embryo lung (MRC-5) and human epidermoid carcinoma of the mouth (KB) cells infected with HRV type 1A and HRV type 2, respectively. Cells grown in 96 well tissue culture plates using conventional mammalian tissue culture medium (such as minimum essential medium) supplemented with fetal calf serum were used in an assay essentially similar to that described by Sidwell and Huffman (Applied Microbiology, 22, 797-801 (1971)). Test compounds were dissolved in 100% anhydrous dimethyl sulfoxide and serially diluted in tissue culture medium. The antiviral potency of the test compounds was assessed by exposing replicate tissue culture wells to a selected dilution series of between 6 and 7 compound concentrations in the presence of sufficient test virus to invoke significant CPE over the course of the assay. Control cells were also exposed to identical concentrations of compounds in the absence of virus or were infected with virus under the same conditions but in the absence of compounds. Compounds of established anti-HRV efficacy (enviroxime, ribavirin and pirodavir) were assayed by identical procedures in parallel to the test compounds. Tissue culture media were identically supplemented to maintain cell viability and support viral growth while suppressing bacterial growth over the period of the assay (supplements: 2% fetal calf serum, 0.01% sodium bicarbonate, […] gentamicin, […] magnesium chloride, […] of zinc chloride). […] At this time all infected cultures were examined by eye using a light microscope and CPE scored on a scale of 0 (no CPE) to 4 (maximum CPE). Uninfected treated cultures were similarly scored for cytotoxic effects (eg. cell enlargement, granularity, rounding, detachment). […] As an alternative to a CC50 value, cytoxicity in some cases was expressed as the Minimum Toxic Concentration (MTC).
(§2) Vital dye staining to measure cell viability was also used to quantify CPE and cytotoxic effects. The vital dye technique was based on either neutral red uptake (Modification of the method of McManus, Appl. Environment. Microbiol., 31, 35-38, 1976) or XXT metabolism. After the assay had been scored by eye with the aid of a microscope, 100 1 of neutral red (NR) solution (0.34% NR in phosphate buffered saline (PBS)) was added to each well and mixed gently. The assays were returned to the 37° C. incubator for 2 hours to facilitate uptake of the NR by viable cells. The medium/NR mixture was then aspirated from the surface of the cells, which were washed twice with PBS. 0.25 ml of absolute ethanol containing Sorensen's citrate buffer I, was added with gentle mixing and the assays incubated at room temperature in the dark for 30 minutes to dissolve the NR. NR staining of viable cells was then quantified spectrophotometrically by measuring the colour density of the NR solution using a BioTek EL-309 microplate reader at dual wavelengths of 540 and 405 nm. The differences in the two readings were automatically determined to eliminate background errors. EC50 and CC50 values were determined by regression analysis matching compound concentration to NR staining. The XTT method involved use of a solution of XTT (1 mg/ml in culture media) which was added to each well and the plates incubated at 37° C. for 4 hours. XTT metabolism was measured spectrophotometrically using a similar method to that described above except that the dual wavelengths were 450 nm and 650 nm. EC50 and CC50 values were determined by regression analysis using a similar method to that described above.
(§3) Selectivity indices (SI) are the CC50 or MTC divided by the EC50.

[3] = test system: human embryo lung (MRC-5) cells; test: Cytotoxicity in uninfected treated cultures (HRV type 1A assay); format: cell-based
Procedure: as §5, §6

[4] = test system: human epidermoid carcinoma of the mouth (KB) cells; test: Cytotoxicity in uninfected treated cultures (HRV type 2 assay)
Procedure: as §1, §2, §3

Coxsackie A21 = test: Activity against Coxsackie A21 in mammalian cell culture assay; format: cell-based
Procedure: (§4) Activity against Enteroviruses in Mammalian Cell Culture Assays Compounds 50 and 56 of the Invention were Tested Against Other Picornaviruses Using Similar cell based assays to those described in example 30 above and the results are shown in Table 6 below: […]

mammalian cell culture [5] = test: in vitro; format: cell-based
Procedure: as §4

Echo 21 = test: Activity against Echo 21 in mammalian cell culture assay; format: cell-based
Procedure: as §4

mammalian cell culture [6] = format: cell-based
Procedure: as §4

Enterovirus 70 = test: Activity against Enterovirus 70 in mammalian cell culture assay; format: cell-based
Procedure: as §4

in vitro = format: cell-based
Procedure: as §4

[7] = MRC5, HRV type 1A, MRC-5 cells, concentration yielding 50% antiviral efficacy, read-out: Activity on Rhinovirus Type 1A EC50
[8] = HRV type 2, KB cells, concentration yielding 50% antiviral efficacy
[9] = HRV type 1A, MRC-5 cells, concentration yielding 50% antiviral efficacy
[10] = MRC5, read-out: Activity on Rhinovirus Type 1A EC50
[11] = Enterovirus D; read-out: Activity on Enterovirus 70 EC50

Structure (SMILES) | Activity on Rhinovirus Type 2 EC50 (HRV type 2; [8]) | CC50 [1] | Activity on Rhinovirus Type 1A EC50 (HRV type 1A; [9]) | Activity on Rhinovirus Type 1A CC50 [3] | Activity on Rhinovirus Type 2 CC50 [4] | other results
COCc1cc(CCCOc2c(C)cc(-c3ccccc3)cc2C)on1 [Compound 6, 3-(methoxymethyl)-5-[3-[2,6-dimethyl-4-phenylphenoxy]-propyl]-isoxazole] | – | > 50 µg/mL | – | – | – | EC50 (HRV type 1A; [7]): 0.16 µg/mL (≈ 0.455 µM); EC50 (HRV type 2; [8]): < 0.005 µg/mL; CC50 ([2]; KB cells, uninfected): > 5 µg/mL
CC(=O)NCCOCCOCc1cc(CCCOc2c(C)cc(-c3ccccc3)cc2C)on1 [Compound 19] | – | – | – | – | – | EC50 (HRV type 1A; [10]): 0.87 µg/mL (≈ 1.86 µM); CC50 ([1]; MRC-5 cells, no virus, CC50 or, in some cases, MTC, read-out: Activity on Rhinovirus Type 1A CC50): 5.79 µg/mL (≈ 12.4 µM); EC50 (HRV type 2; KB): < 0.005 µg/mL; CC50 [2]: 2 µg/mL (≈ 4.29 µM)
Cc1cc(-c2ccccc2)cc(C)c1OCCCc1cc(COCCOCCOCCOCCNC(=O)Nc2ccc(Cc3ccc(NC(=O)NCCOCCOCCOCCOCc4cc(CCCOc5c(C)cc(-c6ccccc6)cc5C)on4)cc3)cc2)no1 [Compound 48] | 0.6 µg/mL | – | 3.85 µg/mL | 30.6 µg/mL | > 5 µg/mL | –
Cc1cc(-c2noc(C(F)(F)F)n2)cc(C)c1OCCCc1cc(COCCOCCOCc2cc(CCCOc3c(C)cc(-c4noc(C(F)(F)F)n4)cc3C)on2)no1 [Compound 50, 1,5-bis-[5-[3-[2,6-dimethyl-4-(5-trifluoromethyl-1,2,4-oxadiazolyl)phenoxy]-propyl]-isoxazolyl-3-methyloxy]-3-oxapentane] | 0.02 µg/mL | – | 0.06 µg/mL | 10 µg/mL | 2 µg/mL | Activity on Coxsackie A21 EC50 (Coxsackie A21): 0.35 µg/mL; Activity on Echo 21 CC50 (mammalian cell culture [5]): 46.3 µg/mL; Activity on Echo 21 EC50 (Echo 21): 0.0006 µg/mL; Activity on Coxsackie A21 CC50 (mammalian cell culture [6]): > 50 µg/mL; Activity on Enterovirus 70 CC50 (mammalian cell culture [6]): > 50 µg/mL; Activity on Enterovirus 70 EC50 (Enterovirus 70; Enterovirus 70): >50 µg/mL
Cc1cc(-c2noc(C(F)(F)F)n2)cc(C)c1OCCCc1cc(COCCOCCOCCOCCOCc2ccc(COCCOCCOCCOCCOCc3cc(CCCOc4c(C)cc(-c5noc(C(F)(F)F)n5)cc4C)on3)cc2)no1 [Compound 56] | 0.09 µg/mL | – | 1.8 µg/mL | 10 µg/mL | 2 µg/mL | Activity on Coxsackie A21 EC50 (Coxsackie A21): 0.36 µg/mL; Activity on Echo 21 CC50 (mammalian cell culture [5]): 7.93 µg/mL; Activity on Echo 21 EC50 (Echo 21): 0.0026 µg/mL; Activity on Coxsackie A21 CC50 (mammalian cell culture [6]): 11.1 µg/mL; Activity on Enterovirus 70 CC50 (mammalian cell culture [6]): > 50 µg/mL; Activity on Enterovirus 70 EC50 (Enterovirus 70; Enterovirus 70): 2.88 µg/mL
CC(C)S(=O)(=O)n1c(N)nc2ccc(/C(=N/O)c3ccccc3)cc21 [Enviroxime] | – | 0.49 µg/mL (≈ 1.37 µM) | – | – | – | EC50 (Coxsackie A21): 0.39 µg/mL (≈ 1.09 µM); CC50 (in vitro): 0.45 µg/mL (≈ 1.26 µM); EC50 (Echo 21): 0.03 µg/mL (≈ 0.0837 µM); EC50 (HRV type 1A; [7]): 0.006 µg/mL (≈ 0.0167 µM); EC50 (Enterovirus 70; [11]): 0.21 µg/mL (≈ 0.586 µM)
CCOC(=O)c1ccc(OCCC2CCN(c3ccc(C)nn3)CC2)cc1 [Pirodavir, reference compound] | – | > 10 µg/mL | – | – | – | EC50 (HRV type 1A; [7]): 0.02 µg/mL (≈ 0.0541 µM); EC50 (HRV type 2; [8]): 0.003 µg/mL (≈ 0.00812 µM)
Cc1cc(CCCOc2c(C)cc(-c3noc(C(F)(F)F)n3)cc2C)on1 [Pleconaril, reference compound] | – | 10 µg/mL (≈ 26.2 µM) | – | – | – | EC50 (Coxsackie A21): 0.0033 µg/mL (≈ 0.00865 µM); EC50 (Echo 21): > 0.00016 µg/mL; EC50 (HRV type 1A; [10]): 0.02 µg/mL (≈ 0.0524 µM); EC50 (HRV type 2; KB): 0.05 µg/mL (≈ 0.131 µM); CC50 ([2]; KB cells, uninfected): 0.5 µg/mL (≈ 1.31 µM); EC50 (Enterovirus 70; Enterovirus D, read-out: Activity on Enterovirus 70 EC50): 0.28 µg/mL (≈ 0.734 µM)
NC(=O)c1ncn([C@@H]2O[C@H](CO)[C@@H](O)[C@H]2O)n1 [Ribavirin] | – | 98.3 µg/mL (≈ 403 µM) | – | – | – | EC50 (Coxsackie A21): > 100 µg/mL; EC50 (Echo 21): 3 µg/mL (≈ 12.3 µM); EC50 (Enterovirus 70; [11]): > 100 µg/mL

The next lines start with results.

Activity on Rhinovirus Type 2 EC50 (HRV type 2; [8]) | Structure (SMILES) | CC50 [1] | Activity on Rhinovirus Type 1A EC50 (HRV type 1A; [9]) | Activity on Rhinovirus Type 1A CC50 [3] | Activity on Rhinovirus Type 2 CC50 [4] | other results
0.001 µg/mL | Cc1cc(-c2ccccc2)cc(C)c1OCCCc1cc(COCCOCCOCCO)no1 [Compound 8] | – | 0.59 µg/mL | 22.7 µg/mL | 5 µg/mL | –
0.1 µg/mL | Cc1cc(-c2ccccc2)cc(C)c1OCCCc1cc(COCCOCCOCCOCCOCCOCCO)no1 [Compound 10] | – | >50 µg/mL | 19 µg/mL | 5 µg/mL | –
0.04 µg/mL | Cc1cc(-c2noc(C(F)(F)F)n2)cc(C)c1OCCCc1cc(COCCOCCOCCO)no1 [Compound 24] | – | 0.21 µg/mL | 5.28 µg/mL | > 1 µg/mL | –
0.1 µg/mL | Cc1cc(-c2ccccc2)cc(C)c1OCCCc1cc(COCCOCCOCCOCc2cc(CCCOc3c(C)cc(-c4ccccc4)cc3C)on2)no1 [Compound 32, 1,8-bis-[5-[3-[2,6-dimethyl-4-phenylphenoxy]-propyl]-isoxazolyl-3-methyloxy]-3,6-dioxaoctane] | – | 0.32 µg/mL | > 50 µg/mL | > 5 µg/mL | –
0.09 µg/mL | Cc1cc(-c2ccccc2)cc(C)c1OCCCc1cc(COCCOCCOCCOCCOCCOCCOCc2cc(CCCOc3c(C)cc(-c4ccccc4)cc3C)on2)no1 [Compound 34] | – | >50 µg/mL | 10.9 µg/mL | > 0.5 µg/mL | –
